Reference: PMC8509398, “Proteolytic Cleavage of Bioactive Peptides and Protease-Activated Receptors in Acute and Post-Colitis” (International Journal of Molecular Sciences, 2021)
Residues, ends and D or L forms follow the SMILES beside them.

Experiment: Cleavage of peptides by colonic tissue lysates from TNBS-induced colitis rat model, MALDI-TOF/TOF
Settings: 10 µM peptide, 20 µg/mL protein, 37 °C; for Number of colonic samples in which the TL-sequence unmasking cleavage was observed, acute colitis: acute colitis lysates; for Number of colonic samples in which the TL-sequence unmasking cleavage was observed, post-colitis: post-colitis lysates; for Processing by colonic samples, in words (comparison of control, post-colitis and acute colitis): rat colonic lysates, up to 30 min, n = 8 per group
Method: Adult male Sprague–Dawley rats (200–225 g; Charles River, Wilmington, MA, USA) were used in a previously described TNBS-induced acute and post-inflammatory model. Rats were housed at constant room temperature (22 ± 2 °C) and humidity (60%) with two rats per cage, unlimited access to water and food and on a 12 h–12 h light/dark cycle.
After an overnight fast, TNBS colitis was induced using a TNBS-enema (4 mg TNBS; Sigma-Aldrich, 50% ethanol) as described previously. Rats were anesthetized with a mixture of ketamine (35 mg/kg i.p.; Ketalar®, Pfizer, New York City, NY, USA) and xylazine (5 mg/kg i.p.; Rompun®, Bayer, Leverkusen, Germany), and the TNBS-enema or 0.9% saline was administered intrarectally using a flexible catheter (18 G, length 4.5 cm) to colitis and control rats, respectively. Animals were kept in a tail-up position for 1 min and were then allowed to recover in their cages with free access to water and food. […] For the post-colitis group (n = 8), a colonoscopy was performed starting from day 10 and repeated every 4 days until complete mucosal healing was observed. The rats were then sacrificed as well and colonic samples were taken.
Colonic lysates were prepared for studying their effects on cleavage patterns of added peptides with a MALDI-TOF/TOF assay. After sacrifice, a sample of approximately 50 mg of distal colon was taken from each rat. The colonic samples were immediately rinsed with Krebs solution, snap-frozen and stored at −80 °C until further processing. Sample preparation started with crushing the colonic samples on dry ice. Liquid nitrogen was used to prevent the loss of enzymatic activity due to temperature increases and the colon powders were stored at −80 °C for further experiments. […] After centrifugation, the supernatants were collected and used immediately to prepare the reaction mixtures, measure proteolytic activities with fluorogenic substrates and determine the protein content with a Bradford assay.
Colonic lysate was added to a peptide of interest to obtain the reaction mixtures with the colonic samples. Lysate and peptide were diluted so each mixture contained 10 µM peptide of interest and 20 µg/mL protein originating from the colonic tissue. These peptide and protein concentrations were based on research from Loew et al. and O’ Donoghue et al.. The mixtures were incubated at 37 °C for several incubation periods between 5 and 30 min. Afterward, the fragmentation reaction was stopped by adding trifluoroacetic acid (TFA; Alfa Aesar™, ThermoFisher, Waltham, MA, USA) to a final concentration of 2% and standard peptide (substance P, bradykinin or PAR3-based peptide) was added in a final concentration of 10 µM. Standard peptides were selected based on the mass of the peptides of interest. For each sample/peptide combination, a starting point was included as well. Here, TFA was added immediately after mixing the reaction constituents. Samples were stored at −80 °C for further MALDI-TOF/TOF experiments.
The TFA mixtures were thawed on ice and desalted using C18 zip-tips (Merck Millipore®, Burlington, MA, USA) with a capacity of 5 µg protein. Retained peptide fragments were eluted directly on the MALDI target plate. Next, 0.5 µL of a 2.5 mg/mL α-cyano-4-hydroxycinnamic acid (Sigma-Aldrich) matrix solution (in 70% acetonitrile, 0.1% TFA) was spotted on top of the sample. A 6-Peptide mixture Kit (AB Sciex, Framingham, MA, USA) containing bradykinin (2–9), angiotensin I, glu1-fibrinopeptide, ACTH (1–17), ACTH (18–39) and ACTH (7–38) was diluted with matrix and spotted on the plate as well.
MS and MS/MS data for peptide fragment identification were obtained with a MALDI-TOF/TOF instrument (4800 MALDI TOF/TOF™, Applied Biosystems, Waltham, MA, USA) and instrument parameters were set using 4000 Series Explorer™ software. MS spectra were recorded in positive reflector mode in a mass range from 500 to 4000 Da and laser intensity of 4500–4800 Hz.

[1] = n = 8, MALDI-TOF/TOF, PAR1-based after 30 min
[2] = rat colonic lysate, 5-30 min, stopped with 2% TFA, MALDI-TOF/TOF relative intensity vs standard peptide, n = 8 animals

SMILES	Number of colonic samples in which the TL-sequence unmasking cleavage was observed, acute colitis [1]	Number of colonic samples in which the TL-sequence unmasking cleavage was observed, control (control lysates, n = 8, MALDI-TOF/TOF, PAR1-based after 30 min)	Number of colonic samples in which the TL-sequence unmasking cleavage was observed, post-colitis [1]	Processing by colonic samples, in words (comparison of control, post-colitis and acute colitis) (MALDI-TOF/TOF)	Incubation time after which processing was significant (decrease of full-length peptide or increase of fragment), acute colitis samples (rat colonic lysate, acute TNBS colitis, 5-30 min, stopped with 2% TFA, MALDI-TOF/TOF relative intensity vs standard peptide, n = 8 animals) [min]	Incubation time after which processing was significant (decrease of full-length peptide or increase of fragment), control samples (rat colonic lysate, control, 5-30 min, stopped with 2% TFA, MALDI-TOF/TOF relative intensity vs standard peptide, n = 8 animals)	Incubation time after which processing was significant (decrease of full-length peptide or increase of fragment), post-colitis samples [2]
CC[C@H](C)[C@H](NC(=O)[C@H](CC(C)C)NC(=O)[C@H](CO)NC(=O)[C@H](CCCNC(=N)N)NC(=O)CNC(=O)[C@H](CCCCN)NC(=O)[C@H](CO)NC(=O)[C@H](CO)NC(=O)[C@H](CCCNC(=N)N)NC(=O)[C@H](CC(N)=O)NC(=O)[C@@H](NC(=O)CNC(=O)[C@H](CCC(N)=O)NC(=O)[C@@H](NC(=O)[C@@H](N)[C@@H](C)O)[C@@H](C)CC)[C@@H](C)O)C(=O)NCC(=O)N[C@@H](CCCCN)C(=O)N[C@H](C(=O)N[C@@H](CC(=O)O)C(=O)NCC(=O)N[C@H](C(=O)N[C@@H](CO)C(=O)N[C@@H](Cc1c[nH]cn1)C(=O)N[C@H](C(N)=O)C(C)C)[C@@H](C)O)C(C)C [PAR2-based] (H-TIQGTNRSSKGRSLIGKVDGTSHV-NH2)	four out of eight	two out of eight	three out of eight	no differences	–	–	–
CC[C@H](C)[C@H](NC(=O)[C@@H]1CCCN1C(=O)[C@H](CC(C)C)NC(=O)[C@@H](NC(=O)[C@@H]1CCCN1C(=O)[C@H](CCCCN)NC(=O)[C@H](C)NC(=O)[C@H](CC(C)C)NC(=O)[C@H](CC(N)=O)NC(=O)[C@H](CC(N)=O)NC(=O)[C@@H](NC(=O)[C@H](CC(=O)O)NC(=O)[C@H](CC(N)=O)NC(=O)[C@H](CCC(=O)O)NC(=O)[C@H](CCSC)NC(=O)CN)[C@@H](C)O)[C@@H](C)O)C(=O)N[C@@H](CCCCN)C(=O)N[C@H](C(=O)N[C@@H](Cc1ccccc1)C(=O)N[C@@H](CCCNC(=N)N)C(=O)NCC(=O)N[C@@H](C)C(=O)N1CCC[C@H]1C(=O)N1CCC[C@H]1C(=O)N[C@@H](CC(N)=O)C(=O)N[C@@H](CO)C(=O)N[C@@H](Cc1ccccc1)C(=O)N[C@@H](CCC(=O)O)C(N)=O)[C@@H](C)O [PAR3-based] (H-GMENDTNNLAKPTLPIKTFRGAPPNSFE-NH2)	–	–	–	cleaved slowly	30	No C- or N-terminal fragments could be detected	trend towards an increase of the C-terminal fragment
CC[C@H](C)[C@H](NC(=O)[C@H](CO)NC(=O)[C@@H]1CCCN1C(=O)[C@@H](NC(=O)[C@H](CO)NC(=O)[C@H](CC(=O)O)NC(=O)[C@H](CC(=O)O)NC(=O)CNC(=O)CNC(=O)CNC(=O)[C@@H](NC(=O)[C@H](CO)NC(=O)CNC(=O)[C@H](CO)NC(=O)[C@H](CCC(=O)O)NC(=O)[C@H](CC(=O)O)NC(=O)[C@H](Cc1ccc(O)cc1)NC(=O)[C@@H](NC(=O)[C@H](CO)NC(=O)[C@@H]1CCCN1C(=O)[C@@H](NC(=O)[C@H](CCC(N)=O)NC(=O)[C@@H](NC(=O)CNC(=O)CN)[C@@H](C)O)[C@@H](C)O)C(C)C)[C@@H](C)O)[C@@H](C)O)C(=O)N[C@@H](CC(C)C)C(=O)N1CCC[C@H]1C(=O)N[C@@H](C)C(=O)N1CCC[C@H]1C(=O)N[C@@H](CCCNC(=N)N)C(=O)NCC(=O)N[C@@H](Cc1ccc(O)cc1)C(=O)N1CCC[C@H]1C(=O)NCC(=O)N[C@@H](CCC(N)=O)C(=O)N[C@H](C(=O)N[C@@H](CS)C(=O)N[C@@H](C)C(=O)N[C@@H](CC(N)=O)C(=O)N[C@@H](CC(=O)O)C(N)=O)C(C)C [PAR4-based] (H-GGTQTPSVYDESGSTGGGDDSTPSILPAPRGYPGQVCAND-NH2)	five out of eight	–	two out of eight	–	–	–	not in post-colitis samples
CC[C@H](C)[C@H](NC(=O)[C@H](CO)NC(=O)[C@H](CC(N)=O)NC(=O)[C@H](CC(C)C)NC(=O)[C@H](Cc1ccc(O)cc1)NC(=O)[C@H](CCCCN)NC(=O)[C@H](CCCCN)NC(=O)[C@@H](NC(=O)[C@H](C)NC(=O)[C@H](CCSC)NC(=O)[C@H](CCC(N)=O)NC(=O)[C@H](CCCCN)NC(=O)[C@H](CCCN=C(N)N)NC(=O)[C@H](CC(C)C)NC(=O)[C@H](CCCN=C(N)N)NC(=O)[C@@H](NC(=O)[C@H](Cc1ccc(O)cc1)NC(=O)[C@H](CC(N)=O)NC(=O)[C@H](CC(=O)O)NC(=O)[C@@H](NC(=O)[C@H](Cc1ccccc1)NC(=O)[C@@H](NC(=O)[C@H](C)NC(=O)[C@H](CC(=O)O)NC(=O)[C@H](CO)NC(=O)[C@@H](N)Cc1c[nH]cn1)C(C)C)[C@@H](C)O)[C@@H](C)O)C(C)C)C(=O)N[C@@H](CC(C)C)C(=O)N[C@@H](CC(N)=O)C(N)=O [VIP, Vasoactive intestinal peptide]	–	–	–	no differences	–	–	–
CC[C@H](C)[C@H](NC(=O)[C@H](C)NC(=O)[C@H](CC(N)=O)NC(=O)[C@H](CCCCN)NC(=O)[C@H](Cc1ccccc1)NC(=O)[C@H](CC(C)C)NC(=O)[C@@H](NC(=O)[C@@H](NC(=O)[C@H](CC(C)C)NC(=O)[C@@H]1CCCN1C(=O)[C@@H](NC(=O)[C@H](CCC(N)=O)NC(=O)[C@H](CO)NC(=O)[C@H](CCCCN)NC(=O)[C@H](CCC(=O)O)NC(=O)[C@H](CO)NC(=O)[C@@H](NC(=O)[C@H](CCSC)NC(=O)[C@H](Cc1ccccc1)NC(=O)CNC(=O)CNC(=O)[C@@H](N)Cc1ccc(O)cc1)[C@@H](C)O)[C@@H](C)O)C(C)C)[C@@H](C)O)C(=O)N[C@H](C(=O)N[C@@H](CCCCN)C(=O)N[C@@H](CC(N)=O)C(=O)N[C@@H](C)C(=O)N[C@@H](Cc1ccc(O)cc1)C(=O)N[C@@H](CCCCN)C(=O)N[C@@H](CCCCN)C(=O)NCC(=O)N[C@@H](CCC(=O)O)C(=O)O)[C@@H](C)CC [β-endorphin]	–	–	–	cleaved more intensively by proteases in acute colitis samples	–	–	–
